Measurements from ChEMBL document CHEMBL3244075, “Synthesis and hypoglycemic activity of some substituted 2-arylthiazolo[3,2-a]pyridinium salts” (J Med Chem, 1978).
Active and inactive are the calls of the source. The calls are words filed in the database; no cut-off is given here.

Legend:
Rattus norvegicus [1] = assay: Hypoglycemic activity in 48 hrs-fasted rat assessed as change in blood glucose level at dose equivalent to 102 mg of free base/kg, po measured at 5 hrs relative to control; format: functional
Rattus norvegicus [2] = assay: Hypoglycemic activity in 48 hrs-fasted rat assessed as change in blood glucose level at dose equivalent to 102 mg of free base/kg, po measured at 4 hrs relative to control; format: functional
Rattus norvegicus [3] = assay: Hypoglycemic activity in 48 hrs-fasted rat assessed as change in blood glucose level at dose equivalent to 102 mg of free base/kg, po measured at 1 hr relative to control; format: functional
Rattus norvegicus [4] = assay: Hypoglycemic activity in 48 hrs-fasted rat assessed as change in blood glucose level at dose equivalent to 102 mg of free base/kg, po measured at 3 hrs relative to control; format: functional
Rattus norvegicus [5] = assay: Hypoglycemic activity in 48 hrs-fasted rat assessed as change in blood glucose level at dose equivalent to 102 mg of free base/kg, po measured at 2 hrs relative to control; format: functional
Rattus norvegicus [6] = assay: Toxicity in 48 hrs-fasted rat assessed as elevation in hepatic triglyceride level at dose equivalent to 102 mg of free base/kg, po relative to control; format: organism-based; conditions: in vivo
Rattus norvegicus [7] = organism: Rattus norvegicus; assay: Hypoglycemic activity in streptozotocin-induced diabetic rat model; format: functional, organism-based
Rattus norvegicus [8] = organism: Rattus norvegicus; assay: Hypoglycemic activity in normal fed rat; format: functional, organism-based
Rattus norvegicus [9] = assay: Hypoglycemic activity in 48 hrs-fasted rat assessed as change in blood glucose level at dose equivalent to 34 mg of free base/kg, po measured at 5 hrs relative to control; format: functional, organism-based
Kidney = assay: Inhibition of glucose production from lactate in rat kidney cortex at 10^-4 M; format: functional, tissue-based
Rattus norvegicus [10] = assay: Hypoglycemic activity in 48 hrs-fasted rat assessed as change in blood glucose level at dose equivalent to 68 mg of free base/kg, po measured at 5 hrs relative to control; format: functional
Rattus norvegicus [11] = assay: Hypoglycemic activity in 48 hrs-fasted rat assessed as change in blood glucose level at dose equivalent to 68 mg of free base/kg, po measured at 3 hrs relative to control; format: functional
Rattus norvegicus [12] = assay: Hypoglycemic activity in 48 hrs-fasted rat assessed as change in blood glucose level at dose equivalent to 68 mg of free base/kg, po measured at 2 hrs relative to control; format: functional
Rattus norvegicus [13] = assay: Hypoglycemic activity in 48 hrs-fasted rat assessed as change in blood glucose level at dose equivalent to 68 mg of free base/kg, po measured at 4 hrs relative to control; format: functional
Rattus norvegicus [14] = assay: Hypoglycemic activity in 48 hrs-fasted rat assessed as change in blood glucose level at dose equivalent to 68 mg of free base/kg, po measured at 1 hr relative to control; format: functional
Rattus norvegicus [15] = assay: Toxicity in 48 hrs-fasted rat assessed as elevation in hepatic triglyceride level at dose equivalent to 34 mg of free base/kg, po relative to control; format: organism-based; conditions: in vivo
Rattus norvegicus [16] = assay: Toxicity in streptozotocin-induced diabetic rat model assessed as elevation in hepatic triglyceride level up to dose equivalent to 136 mg of free base/kg, po relative to control; format: organism-based; conditions: in vivo

SMILES | Activity (Rattus norvegicus [1]) | Activity (Rattus norvegicus [2]) | Activity (Rattus norvegicus [3]) | Activity (Rattus norvegicus [4]) | Activity (Rattus norvegicus [5]) | also measured
CC(C)Oc1cccc(-c2c[n+]3ccccc3s2)c1.[O-][Cl+3]([O-])([O-])[O-] | -10% | 9% | 4% | -4% | -1% | –
Cc1ccc[n+]2cc(-c3ccccc3)sc12.O.[O-][Cl+3]([O-])([O-])[O-] | -50% | -59% | -17% | -51% | -42% | Activity (Rattus norvegicus [6]): 200%
O=S(=O)([O-])c1ccc(-c2ccc(-c3c[n+]4ccccc4s3)cc2)cc1 | 4% | 2% | 3% | 13% | 3% | –
O.[Cl-].c1csc(-c2c[n+]3ccccc3s2)c1 | 0% | -13% | 1% | -13% | -2% | –
Cc1ccc2sc(-c3ccccc3)c[n+]2c1.[O-][Cl+3]([O-])([O-])[O-] | -16% | -27% | 19% | -26% | -30% | –
O.O=S(=O)([O-])O.O=[N+]([O-])c1cccc(-c2c[n+]3ccccc3s2)c1 | 0% | -6% | -10% | -6% | -7% | –
CS(=O)(=O)c1ccc(-c2c[n+]3ccccc3s2)cc1.[O-][Cl+3]([O-])([O-])[O-] | -2% | -6% | 3% | -6% | -8% | –
Cc1cc[n+]2cc(-c3ccccc3)sc2c1.[O-][Cl+3]([O-])([O-])[O-] | -22% | -29% | 14% | -28% | -4% | –
CC(=O)Nc1cccc(-c2c[n+]3ccccc3s2)c1.[O-][Cl+3]([O-])([O-])[O-] | 4% | 9% | 12% | 3% | 8% | –
[O-][Cl+3]([O-])([O-])[O-].c1cc[n+]2ccsc2c1 | -12% | -13% | -14% | -15% | -20% | –
O=S(=O)([O-])c1ccc(-c2c[n+]3ccccc3s2)s1 | 6% | -6% | -6% | -5% | 5% | –
CSc1ccc(-c2c[n+]3ccccc3s2)cc1.O.[O-][Cl+3]([O-])([O-])[O-] | -2% | -6% | -9% | -14% | -11% | –
O.[O-][Cl+3]([O-])([O-])[O-].c1ccc(-c2csc3cccc[n+]23)cc1 | -19% | -12% | -12% | -28% | -16% | –
Nc1cccc(-c2c[n+]3ccccc3s2)c1.[O-][Cl+3]([O-])([O-])[O-] | -8% | -7% | -10% | -8% | -16% | –
O.[Cl-].c1ccc(-c2ccc(-c3c[n+]4ccccc4s3)cc2)cc1 | 3% | 13% | -7% | -12% | -12% | –
c1ccc(-c2c[n+]3ccccc3s2)cc1 | – | – | – | – | – | Activity (Rattus norvegicus [7]): Active; Activity (Rattus norvegicus [8]): Active; Activity (Rattus norvegicus [9]): Active; Activity (Kidney): Active
O.O=S(=O)([O-])O.c1ccc(-c2c[n+]3ccccc3s2)cc1 | – | – | – | – | – | Activity (Rattus norvegicus [10]): -30%; Activity (Rattus norvegicus [11]): -21%; Activity (Rattus norvegicus [12]): -16%; Activity (Rattus norvegicus [13]): -39%; Activity (Rattus norvegicus [14]): -6%
Brc1ccc(-c2c[n+]3ccccc3s2)cc1.O.O=S(=O)([O-])O | 1% | -5% | 9% | -1% | -4% | –
[O-][Cl+3]([O-])([O-])[O-].c1ccc(-c2c[n+]3ccccc3s2)cc1 | – | – | – | – | – | Activity (Rattus norvegicus [10]): -28%; Activity (Rattus norvegicus [6]): 200%; Activity (Rattus norvegicus [15]): Toxic; Activity (Rattus norvegicus [11]): -17%; Activity (Rattus norvegicus [12]): -8%; Activity (Rattus norvegicus [13]): -33%; Activity (Rattus norvegicus [16]): Non-toxic; Activity (Rattus norvegicus [14]): -4%
O=C([O-])C(F)(F)F.c1ccc(-c2c[n+]3ccccc3s2)cc1 | – | – | -7% | – | -9% | Activity (Rattus norvegicus [10]): -24%; Activity (Rattus norvegicus [11]): -15%; Activity (Rattus norvegicus [13]): -18%
CN(C)/C=N/c1cccc(-c2c[n+]3ccccc3s2)c1.O.[O-][Cl+3]([O-])([O-])[O-] | 22% | -1% | 1% | -1% | 0% | –
O.[Cl-].c1ccc(-c2c[n+]3ccccc3s2)cc1 | – | – | – | – | – | Activity (Rattus norvegicus [10]): -39%; Activity (Rattus norvegicus [11]): -31%; Activity (Rattus norvegicus [12]): -13%; Activity (Rattus norvegicus [13]): -39%; Activity (Rattus norvegicus [14]): -4%
Nc1ccc(-c2c[n+]3ccccc3s2)cc1.O.[O-][Cl+3]([O-])([O-])[O-] | -14% | -7% | -8% | -20% | 1% | –
